Measurements published in ChEMBL document CHEMBL3046784, “Exploring QSAR of antiamoebic agents of isolated natural products by MLR, ANN, and RTO” (Med Chem Res, 2012).
Values after ≈ are worked out from the molar mass of the structure shown.

The molecules below were run on Entamoeba histolytica (assay: Antiamoebic activity against Entamoeba histolytica). Details: Entamoeba histolytica; read-out: IC50.
Assay type: functional, organism-based

SMILES | IC50 [µg/mL]
CC[C@@H](C)C(=O)O[C@H]1C(=O)O[C@@H]2C[C@H]3C(C)=CC(=O)[C@@H](O)[C@]3(C)[C@H]3[C@@H](O)[C@H](O)[C@]4(C)OC[C@]32[C@@H]14 [SIMALIKALACTONE D] | 0.047 (≈ 0.0982 µM)
O=C(/C=C/c1ccc(O)cc1)O[C@H]1[C@@H]2C=CO[C@@H](O[C@@H]3O[C@H](CO)[C@@H](O)[C@H](O)[C@H]3O)[C@@H]2[C@@]2(CO)O[C@@H]12 [SPECIOSIDE] | 0.198 (≈ 0.39 µM)
C/C=C1\CN2CC[C@]34c5ccccc5N5[C@@H]([C@H]6[C@@H]7N(C(C)=O)c8ccccc8[C@@]78CCN7C/C(=C\C)[C@@H]6C[C@H]78)OC[C@@H]([C@H]53)[C@H]1C[C@H]24 [STRYCHNOBILINE] | 21.5 (≈ 35 µM)
C=C[C@H]1CN2CC[C@@]3(C(=O)Nc4cc(O)ccc43)[C@@H]2C[C@@H]1C[C@H]1c2[nH]c3ccccc3c2CCN1C [STRYCHNOFOLINE] | 25.1 (≈ 51.9 µM)
O=C(/C=C/c1ccc(O)cc1)OC[C@H]1O[C@@H](Oc2c(-c3ccc(O)cc3)oc3cc(O)cc(O)c3c2=O)[C@H](O)[C@@H](O)[C@@H]1O [TILIROSIDE] | 17.4 (≈ 29.4 µM)
CC[C@H]1CN2CCc3cc(OC)c(OC)cc3[C@@H]2C[C@@H]1C[C@H]1NCCc2c1[nH]c1ccc(O)cc21 [TUBULOSINE] | 1.6 (≈ 3.36 µM)
O=C(/C=C/c1ccc(O)c(O)c1)O[C@@H]1C2C=CO[C@H](O[C@@H]3O[C@H](CO)[C@@H](O)[C@H](O)[C@H]3O)C2[C@]2(CO)O[C@H]12 (stereo not given in full) [VERMINOSIDE] | 0.0995 (≈ 0.19 µM)
COc1c(OC)c(O)c2c(=O)cc(-c3ccc(O)cc3)oc2c1OC [XANTHOMICROL] | 275 (≈ 798 µM)
COC(=O)[C@]12OC[C@]34[C@H]([C@@H](O)[C@@H]1O)[C@@]1(C)C=C(O[C@@H]5O[C@H](CO)[C@@H](O)[C@H](O)[C@H]5O)C(=O)[C@@H](C)[C@@H]1C[C@H]3OC(=O)[C@H](OC(C)=O)[C@@H]24 [YADANZIOSIDE F] | 2.33 (≈ 3.63 µM)

Continued, values first:

IC50 [µg/mL] | SMILES
7.7 (≈ 14 µM) | C=C[C@H]1CN2CCc3c([nH]c4c([C@H]5CCCN5C)c(O)ccc34)[C@@H]2C[C@@H]1C[C@H]1c2[nH]c3ccccc3c2CCN1C [STRYCHNOPENTAMINE]
50 (≈ 80 µM) | COc1cc2c3cc1Oc1c(OC)c(OC)c(O)c4c1[C@H](Cc1ccc(cc1)Oc1cc(ccc1O)C[C@@H]3N(C)CC2)N(C)CC4 [THALISOPIDINE]
19.2 (≈ 31.6 µM) | COc1cc2c3cc1Oc1c(O)c(OC)cc4c1[C@H](Cc1ccc(O)c(c1)-c1cc(ccc1OC)C[C@H]3N(C)CC2)N(C)CC4 [TILIAGEINE]
23.3 (≈ 41.5 µM) | COc1ccc2cc1Oc1ccc(cc1)CC1=NCCc3cc(OC)c4c(c31)Oc1cc3c(cc1O4)CCN(C)[C@H]3C2 [TRIGILLETIMINE]
0.49 (≈ 1.13 µM) | C/C=C1/CN2CCc3c([nH]c4ccccc34)[C@@H]2C[C@@H]1Cc1nccc2c1[nH]c1ccccc12 [USAMBARENSINE]
0.46 (≈ 1.02 µM) | C=C[C@H]1CN2CCc3c([nH]c4ccccc34)[C@@H]2C[C@@H]1C[C@H]1c2[nH]c3ccccc3c2CCN1C [USAMBARINE]
